Where a SMILES comes first, the peptide text is derived from it.
Tested on: Botrytis cinerea
Assay: Antimicrobial bioassay (Botrytis cinerea): growth inhibition by OD600
Assay type: cell-based
Settings: for anti-Botrytis activities relative to NCR13a: Botrytis cinerea growth, comparison with NCR13a; for Activity ratio to NCR13a: anti-Botrytis cinerea activity (IC50) relative to comparator NCR13a
Experimental: The antimicrobial effect of the NCR13 variant peptides (NVPs) of the present disclosure were evaluated against the fungal species, Botrytis cinerea. […] The growth of Botrytis cinerea was then assessed via OD600 nm after incubation with a given NVP at room temperature after 96 hours. The IC50 of each peptide analyzed is shown in ppm.
The antimicrobial effect of the NCR13 variant peptides (NVPs) of the present disclosure were evaluated against the fungal species, Botrytis cinerea. […] The growth of Botrytis cinerea was then assessed via OD600 nm after incubation with a given NVP at room temperature after 96 hours.
The NVPs assessed were as follows: NVPM3 (+L) (SEQ ID NO: 5); NVPM5 (+M) (SEQ ID NO: 7); NVPM6 (+F) (SEQ ID NO: 8); NVPM7 (+W) (SEQ ID NO: 9); NVPM9 (+S) (SEQ ID NO: 11); NVPM11 (+Y) (SEQ ID NO: 13); NVPM14 (+D) (SEQ ID NO: 16); and NVPM15 (+E) (SEQ ID NO: 17).
NVPs having an amino acid sequence of SEQ ID NOs: 5, 7, 8, 9, 11, 13, 16, and 17 were generated as described above in Example 1. The peptide, NCR13a, having an amino acid sequence of: […] (SEQ ID NO: 2) was selected as a comparator peptide, with which the antifungal activity of the foregoing NVPs was compared.
The fungal species was Botrytis cinerea was cultured in potato dextrose agar plates. Fungal spores were collected from the agar plates and suspended into de-ionized water, followed by enumeration in a Petroff-Hausser counting chamber (VWR).
The 96-well plates were incubated at room temperature for 96 hours without shaking. The OD600 of the culture plate was determined using SpectraMax plate reader. Relative OD600 was determined by normalizing cell growth to control wells containing neither NVPs nor NCR13a. The OD600 was used to determine IC50.

SMILES	anti-Botrytis activities relative to NCR13a	Activity ratio to NCR13a	IC50 (ppm) (amount required to achieve IC50 in Botrytis cinerea cells, growth by OD600 after 96 hours at room temperature in synthetic fungal medium, 2-fold serial dilution)
CC[C@H](C)[C@H](NC(=O)[C@H](CS)NC(=O)[C@H](CCCCN)NC(=O)[C@@H]1CCCN1C(=O)[C@@H](NC(=O)[C@H](CCCCN)NC(=O)[C@@H]1CCCN1C(=O)[C@H](CCCCN)NC(=O)[C@H](CCCNC(=N)N)NC(=O)[C@H](CS)NC(=O)[C@H](C)NC(=O)[C@H](Cc1ccccc1)NC(=O)[C@H](CCCCN)NC(=O)[C@H](CCCCN)NC(=O)[C@H](CS)NC(=O)[C@H](CC(=O)O)NC(=O)[C@H](CCCCN)NC(=O)[C@H](CC(=O)O)NC(=O)[C@H](CO)NC(=O)[C@H](CCC(N)=O)NC(=O)[C@H](CS)NC(=O)[C@@H]1CCCN1C(=O)[C@H](CCCCN)NC(=O)[C@@H](NC(=O)[C@@H](N)CC(C)C)[C@@H](C)O)C(C)C)C(=O)N[C@@H](CC(N)=O)C(=O)NCC(=O)N[C@@H](Cc1ccccc1)C(=O)N[C@@H](CS)C(=O)N[C@@H](CCCCN)C(=O)N[C@@H](CS)C(=O)N[C@H](C(=O)N[C@@H](CCCNC(=N)N)C(=O)O)C(C)C [NVPM3] (H-LTKPCQSDKDCKKFACRKPKVPKCINGFCKCVR-OH; N-terminus and C-terminus assumed)	improved anti-Botrytis activities relative to NCR13a	4.14	
CC[C@H](C)[C@H](NC(=O)[C@H](CS)NC(=O)[C@H](CCCCN)NC(=O)[C@@H]1CCCN1C(=O)[C@@H](NC(=O)[C@H](CCCCN)NC(=O)[C@@H]1CCCN1C(=O)[C@H](CCCCN)NC(=O)[C@H](CCCNC(=N)N)NC(=O)[C@H](CS)NC(=O)[C@H](C)NC(=O)[C@H](Cc1ccccc1)NC(=O)[C@H](CCCCN)NC(=O)[C@H](CCCCN)NC(=O)[C@H](CS)NC(=O)[C@H](CC(=O)O)NC(=O)[C@H](CCCCN)NC(=O)[C@H](CC(=O)O)NC(=O)[C@H](CO)NC(=O)[C@H](CCC(N)=O)NC(=O)[C@H](CS)NC(=O)[C@@H]1CCCN1C(=O)[C@H](CCCCN)NC(=O)[C@@H](NC(=O)[C@@H](N)Cc1c[nH]c2ccccc12)[C@@H](C)O)C(C)C)C(=O)N[C@@H](CC(N)=O)C(=O)NCC(=O)N[C@@H](Cc1ccccc1)C(=O)N[C@@H](CS)C(=O)N[C@@H](CCCCN)C(=O)N[C@@H](CS)C(=O)N[C@H](C(=O)N[C@@H](CCCNC(=N)N)C(=O)O)C(C)C [NVPM7] (H-WTKPCQSDKDCKKFACRKPKVPKCINGFCKCVR-OH; N-terminus and C-terminus assumed)	improved anti-Botrytis activities relative to NCR13a	2.71	
CC[C@H](C)[C@H](NC(=O)[C@H](CS)NC(=O)[C@H](CCCCN)NC(=O)[C@@H]1CCCN1C(=O)[C@@H](NC(=O)[C@H](CCCCN)NC(=O)[C@@H]1CCCN1C(=O)[C@H](CCCCN)NC(=O)[C@H](CCCNC(=N)N)NC(=O)[C@H](CS)NC(=O)[C@H](C)NC(=O)[C@H](Cc1ccccc1)NC(=O)[C@H](CCCCN)NC(=O)[C@H](CCCCN)NC(=O)[C@H](CS)NC(=O)[C@H](CC(=O)O)NC(=O)[C@H](CCCCN)NC(=O)[C@H](CC(=O)O)NC(=O)[C@H](CO)NC(=O)[C@H](CCC(N)=O)NC(=O)[C@H](CS)NC(=O)[C@@H]1CCCN1C(=O)[C@H](CCCCN)NC(=O)[C@@H](NC(=O)[C@H](C)N)[C@@H](C)O)C(C)C)C(=O)N[C@@H](CC(N)=O)C(=O)NCC(=O)N[C@@H](Cc1ccccc1)C(=O)N[C@@H](CS)C(=O)N[C@@H](CCCCN)C(=O)N[C@@H](CS)C(=O)N[C@H](C(=O)N[C@@H](CCCNC(=N)N)C(=O)O)C(C)C [NVPM1] (H-ATKPCQSDKDCKKFACRKPKVPKCINGFCKCVR-OH; N-terminus and C-terminus assumed)		2.43	
CC[C@H](C)[C@H](NC(=O)[C@H](CS)NC(=O)[C@H](CCCCN)NC(=O)[C@@H]1CCCN1C(=O)[C@@H](NC(=O)[C@H](CCCCN)NC(=O)[C@@H]1CCCN1C(=O)[C@H](CCCCN)NC(=O)[C@H](CCCNC(=N)N)NC(=O)[C@H](CS)NC(=O)[C@H](C)NC(=O)[C@H](Cc1ccccc1)NC(=O)[C@H](CCCCN)NC(=O)[C@H](CCCCN)NC(=O)[C@H](CS)NC(=O)[C@H](CC(=O)O)NC(=O)[C@H](CCCCN)NC(=O)[C@H](CC(=O)O)NC(=O)[C@H](CO)NC(=O)[C@H](CCC(N)=O)NC(=O)[C@H](CS)NC(=O)[C@@H]1CCCN1C(=O)[C@H](CCCCN)NC(=O)[C@@H](NC(=O)[C@@H](N)Cc1ccc(O)cc1)[C@@H](C)O)C(C)C)C(=O)N[C@@H](CC(N)=O)C(=O)NCC(=O)N[C@@H](Cc1ccccc1)C(=O)N[C@@H](CS)C(=O)N[C@@H](CCCCN)C(=O)N[C@@H](CS)C(=O)N[C@H](C(=O)N[C@@H](CCCNC(=N)N)C(=O)O)C(C)C [NVPM11] (H-YTKPCQSDKDCKKFACRKPKVPKCINGFCKCVR-OH; N-terminus and C-terminus assumed)	improved anti-Botrytis activities relative to NCR13a	1.77	
CC[C@H](C)[C@H](NC(=O)[C@H](CS)NC(=O)[C@H](CCCCN)NC(=O)[C@@H]1CCCN1C(=O)[C@@H](NC(=O)[C@H](CCCCN)NC(=O)[C@@H]1CCCN1C(=O)[C@H](CCCCN)NC(=O)[C@H](CCCNC(=N)N)NC(=O)[C@H](CS)NC(=O)[C@H](C)NC(=O)[C@H](Cc1ccccc1)NC(=O)[C@H](CCCCN)NC(=O)[C@H](CCCCN)NC(=O)[C@H](CS)NC(=O)[C@H](CC(=O)O)NC(=O)[C@H](CCCCN)NC(=O)[C@H](CC(=O)O)NC(=O)[C@H](CO)NC(=O)[C@H](CCC(N)=O)NC(=O)[C@H](CS)NC(=O)[C@@H]1CCCN1C(=O)[C@H](CCCCN)NC(=O)[C@@H](NC(=O)CN)[C@@H](C)O)C(C)C)C(=O)N[C@@H](CC(N)=O)C(=O)NCC(=O)N[C@@H](Cc1ccccc1)C(=O)N[C@@H](CS)C(=O)N[C@@H](CCCCN)C(=O)N[C@@H](CS)C(=O)N[C@H](C(=O)N[C@@H](CCCNC(=N)N)C(=O)O)C(C)C [NCR13a, reference compound] (H-GTKPCQSDKDCKKFACRKPKVPKCINGFCKCVR-OH; N-terminus and C-terminus assumed)		1	2.36
CC[C@H](C)[C@H](NC(=O)[C@H](CS)NC(=O)[C@H](CCCCN)NC(=O)[C@@H]1CCCN1C(=O)[C@@H](NC(=O)[C@H](CCCCN)NC(=O)[C@@H]1CCCN1C(=O)[C@H](CCCCN)NC(=O)[C@H](CCCNC(=N)N)NC(=O)[C@H](CS)NC(=O)[C@H](C)NC(=O)[C@H](Cc1ccccc1)NC(=O)[C@H](CCCCN)NC(=O)[C@H](CCCCN)NC(=O)[C@H](CS)NC(=O)[C@H](CC(=O)O)NC(=O)[C@H](CCCCN)NC(=O)[C@H](CC(=O)O)NC(=O)[C@H](CO)NC(=O)[C@H](CCC(N)=O)NC(=O)[C@H](CS)NC(=O)[C@@H]1CCCN1C(=O)[C@H](CCCCN)NC(=O)[C@@H](NC(=O)[C@@H](N)Cc1ccccc1)[C@@H](C)O)C(C)C)C(=O)N[C@@H](CC(N)=O)C(=O)NCC(=O)N[C@@H](Cc1ccccc1)C(=O)N[C@@H](CS)C(=O)N[C@@H](CCCCN)C(=O)N[C@@H](CS)C(=O)N[C@H](C(=O)N[C@@H](CCCNC(=N)N)C(=O)O)C(C)C [NVPM6] (H-FTKPCQSDKDCKKFACRKPKVPKCINGFCKCVR-OH; N-terminus and C-terminus assumed)	improved anti-Botrytis activities relative to NCR13a	1.82	
CC[C@H](C)[C@H](NC(=O)[C@H](CS)NC(=O)[C@H](CCCCN)NC(=O)[C@@H]1CCCN1C(=O)[C@@H](NC(=O)[C@H](CCCCN)NC(=O)[C@@H]1CCCN1C(=O)[C@H](CCCCN)NC(=O)[C@H](CCCNC(=N)N)NC(=O)[C@H](CS)NC(=O)[C@H](C)NC(=O)[C@H](Cc1ccccc1)NC(=O)[C@H](CCCCN)NC(=O)[C@H](CCCCN)NC(=O)[C@H](CS)NC(=O)[C@H](CC(=O)O)NC(=O)[C@H](CCCCN)NC(=O)[C@H](CC(=O)O)NC(=O)[C@H](CO)NC(=O)[C@H](CCC(N)=O)NC(=O)[C@H](CS)NC(=O)[C@@H]1CCCN1C(=O)[C@H](CCCCN)NC(=O)[C@@H](NC(=O)[C@@H](N)CO)[C@@H](C)O)C(C)C)C(=O)N[C@@H](CC(N)=O)C(=O)NCC(=O)N[C@@H](Cc1ccccc1)C(=O)N[C@@H](CS)C(=O)N[C@@H](CCCCN)C(=O)N[C@@H](CS)C(=O)N[C@H](C(=O)N[C@@H](CCCNC(=N)N)C(=O)O)C(C)C [NVPM9] (H-STKPCQSDKDCKKFACRKPKVPKCINGFCKCVR-OH; N-terminus and C-terminus assumed)	improved anti-Botrytis activities relative to NCR13a	1.66	

— patent publication US11713341B1, “Antimicrobial NCR13 variant peptides” (Vestaron Corporation, priority 2022, dated 2023)
